# Measurements: US20060099648A1, “Compositions and methods for epitope mapping” (priority 2000, published 2006)
# Tested on: MSP1-19
# Assay: Epitope mapping: displacement of human IgG from peptide pins on exposure to MSP1-19
# Set-up: species or system Plasmodium falciparum
# Details: change in human IgG binding to peptide pin after 1 h exposure to 50 mg/mL MSP1-19 at room temperature; normalised to no-peptide pins and control peptide GLAQG
# Procedure: A natural human IgG antibody library was tested for its ability to bind to peptides associated with the 19 kDa C-terminal region of merozoite surface protein 1 (MSP1-19) from Plasmodium falciparum (Kaslow et al., Mol. Biochem. Parasitology 63:283-289 (1994)). The 89 amino acid sequence from MSP1-19 was used for the epitope mapping experiment (see Table 1).
# Briefly, a library of pentamer peptides was synthesized on polypropylene pins following the procedures described by Geysen et al., Proc. Natl. Acad. Sci. USA 81:3998-4002 (1984). These peptides represented all five-amino-acid stretches of MSP1-19 offset by one residue (Table 1). Peptide pins were precoated in phosphate buffered saline (PBS), pH 7.2, containing 2% BSA and 0.1% TWEEN 20 for one hour at room temperature. Five successive washes of the pins were carried out for five minutes each with agitation in PBS. Human IgG (Calbiochem; San Diego Calif.) was complexed to the peptides by incubating 0.1 mg/mL IgG in PBS at 4° C. for 30 hours. Unbound antibody was removed by washing as described above in 10 mM TRIS, pH 7.4 buffer containing 150 mM NaCl (TBS) using new microtiter plates for transferring the pins for each of the five washings. Anti-human IgG (goat) alkaline phosphatase conjugate was diluted to 0.1 mg specific antibody/mL in TBS and incubated with the peptide/antibody complex for one hour at room temperature before washing five times with TBS, as described above. The pins were then incubated in assay solution containing 10 mM TRIS, pH 8.0, 150 mM NaCl, 0.5 mM MgCl2, and 0.1 mM 4-methylumbelliferyl-phosphate for 30 minutes at room temperature in the dark. Following incubation, the fluorescence intensity of the assay solution was measured in a Spectromax Gemini plate reader (Molecular Devices; Sunnyvale Calif.)(ex 358 nm/em 450 nm).
# The peptide/antibody complexes on the pins were washed five times in TBS, as described above, and incubated with 50 mg/mL MSP1-19 diluted in TBS for one hour at room temperature. The pins were washed in TBS as before and incubated in assay mixture for 30 minutes in the dark prior to measurement of the fluorescent intensity. Change in binding was determined using the equation: ΔF=(FMSP−Fb,MSP)/(F100,MSP−Fb,MSP)−(F0−Fb,0)/(F100,0−Fb,0) where FMSP and F0 are the fluorescence intensities of peptide containing pins after and before exposure to MSP1-19, respectively. Fb,MSP and Fb,0 are the fluorescence intensities of pins with no peptide after and before exposure to MSP1-19, respectively. F100,MSP and F100,0 are the fluorescence intensities of pins containing a control peptide, GLAQG (SEQ ID NO:90), after and prior to exposure to MSP1-19.
row,Substance,ΔF (%)
1,KCLLN [Peptide 29],<5
2,NYKQE [Peptide 33],<5
3,SQHQC [Peptide 3],<5
4,ADAKC [Peptide 58],<5
